Measured values: ChEMBL document CHEMBL1201862, “PubChem BioAssay data set” (2004)
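Five compound concentrations were applied to cells in 96-well plates for 48 hours; endpoints were derived by simple linear interpolation of the resulting dose-response curve. GI50: concentration for 50% inhibition of growth.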 The source made the active and inactive calls. Rule as the data show it: active = GI50 up to about 1.1 µM and inactive = higher.

Tests used:
Test in all cases: growth of human tumour cells (NCI), 48 h
U-251 = test system: U-251
MOLT-4 = test system: MOLT-4
SNB-19 = test system: SNB-19
A498 = test system: A498
SK-OV-3 = test system: SK-OV-3
786-0 = test system: 786-0
UACC-257 = test system: UACC-257
KM12 = test system: KM12
HT-29 = test system: HT-29
IGROV-1 = test system: IGROV-1
HCC 2998 = test system: HCC 2998
MCF7 = test system: MCF7
COLO 205 = test system: COLO 205
Malme-3M = test system: Malme-3M
EKVX = test system: EKVX
BT-549 = test system: BT-549
OVCAR-3 = test system: OVCAR-3
TK-10 = test system: TK-10
HCT-15 = test system: HCT-15
SR = test system: SR
SNB-75 = test system: SNB-75
XF498 = test system: XF498
HOP-62 = test system: HOP-62
LXFL 529 = test system: LXFL 529
ACHN = test system: ACHN
SW-620 = test system: SW-620
MDA-MB-231 = test system: MDA-MB-231
DLD-1 = test system: DLD-1
RPMI-8226 = test system: RPMI-8226
SF-539 = test system: SF-539
NCI-H226 = test system: NCI-H226
T47D = test system: T47D
K562 = test system: K562
DMS-273 = test system: DMS-273
HOP-18 = test system: HOP-18
CAKI-1 = test system: CAKI-1
CCRF-CEM = test system: CCRF-CEM
KM-20L2 = test system: KM-20L2
SK-MEL-28 = test system: SK-MEL-28
SN12C = test system: SN12C
OVCAR-5 = test system: OVCAR-5
SK-MEL-2 = test system: SK-MEL-2
NCI-H23 = test system: NCI-H23
MDA-MB-435 = test system: MDA-MB-435
HL-60 = test system: HL-60
SF-295 = test system: SF-295
OVCAR-4 = test system: OVCAR-4
NCI/ADR-RES = test system: NCI/ADR-RES
UO-31 = test system: UO-31
NCI-H460 = test system: NCI-H460
OVCAR-8 = test system: OVCAR-8
A549 = test system: A549
RXF 631 = test system: RXF 631
NCI-H522 = test system: NCI-H522
MDA-N = test system: MDA-N
M14 = test system: M14
Hs-578T = test system: Hs-578T
M19-MEL = test system: M19-MEL
HOP-92 = test system: HOP-92
DMS-114 = test system: DMS-114
PC-3 = test system: PC-3
SK-MEL-5 = test system: SK-MEL-5
RXF 393 = test system: RXF 393
SNB-78 = test system: SNB-78
HCT-116 = test system: HCT-116
LOX IMVI = test system: LOX IMVI
SF-268 = test system: SF-268
UACC-62 = test system: UACC-62
DU-145 = test system: DU-145

Cc1cc(/N=C2\C=C(Nc3cc(C)on3)C(=O)c3ccccc32)no1 was tested, and the GI50 (U-251) was 30.1 µM (inactive), the GI50 (MOLT-4) was > 100 µM (inactive) and the GI50 (SNB-19) was 61 µM (inactive). For the same compound, the GI50 (A498) was > 100 µM (inactive), the GI50 (SK-OV-3) was 77.8 µM (inactive) and the GI50 (786-0) was 38.1 µM (inactive). The GI50 (UACC-257) was 13.9 µM (inactive), the GI50 (KM12) was > 71.8 µM (inactive) and the GI50 (HT-29) was 49.7 µM (inactive). For the same compound, the GI50 (IGROV-1) was 33.1 µM (inactive), the GI50 (HCC 2998) was > 100 µM (inactive) and the GI50 (MCF7) was 7.46 µM (inactive). The GI50 (COLO 205) was 31.3 µM (inactive), the GI50 (Malme-3M) was 21.5 µM (inactive) and the GI50 (EKVX) was > 66.2 µM (inactive). The GI50 (BT-549) was 27.5 µM (inactive), the GI50 (OVCAR-3) was > 100 µM (inactive) and the GI50 (TK-10) was 55 µM (inactive). The GI50 (HCT-15) was 48.1 µM, the GI50 (SR) was > 100 µM (inactive) and the GI50 (SNB-75) was 31.6 µM (inactive). The GI50 (XF498) was 35.6 µM (inactive), the GI50 (HOP-62) was > 61.1 µM (inactive) and the GI50 (LXFL 529) was > 100 µM (inactive). The GI50 (ACHN) was > 64.3 µM (inactive), the GI50 (SW-620) was > 100 µM (inactive) and the GI50 (MDA-MB-231) was 12.9 µM (inactive). The GI50 (DLD-1) was > 100 µM (inactive), the GI50 (RPMI-8226) was > 100 µM (inactive) and the GI50 (SF-539) was 31.6 µM (inactive). For the same compound, the GI50 (NCI-H226) was > 92 µM (inactive), the GI50 (T47D) was 47.3 µM (inactive) and the GI50 (K562) was > 100 µM (inactive). For the same compound, the GI50 (DMS-273) was 80.4 µM (inactive), the GI50 (HOP-18) was 28.4 µM (inactive) and the GI50 (CAKI-1) was > 85.9 µM (inactive). For the same compound, the GI50 (CCRF-CEM) was > 100 µM (inactive), the GI50 (KM-20L2) was 43.7 µM (inactive) and the GI50 (SK-MEL-28) was 60.5 µM (inactive). The GI50 (SN12C) was > 80.9 µM (inactive), the GI50 (OVCAR-5) was > 76 µM (inactive) and the GI50 (SK-MEL-2) was 17.1 µM (inactive). For the same compound, the GI50 (NCI-H23) was 4.69 µM (inactive), the GI50 (MDA-MB-435) was 7.24 µM (inactive) and the GI50 (HL-60) was > 100 µM (inactive). The GI50 (SF-295) was 46.5 µM (inactive), the GI50 (OVCAR-4) was > 100 µM (inactive) and the GI50 (NCI/ADR-RES) was 69 µM (inactive). For the same compound, the GI50 (UO-31) was 43.7 µM (inactive), the GI50 (NCI-H460) was > 67.8 µM (inactive) and the GI50 (OVCAR-8) was 37.3 µM (inactive). The GI50 (A549) was 31.2 µM (inactive), the GI50 (RXF 631) was 28.8 µM (inactive) and the GI50 (NCI-H522) was > 100 µM (inactive). The GI50 (MDA-N) was 1.96 µM (inactive), the GI50 (M14) was 34.7 µM (inactive) and the GI50 (Hs-578T) was 13.2 µM (inactive). The GI50 (M19-MEL) was 2.64 µM (inactive), the GI50 (HOP-92) was 19 µM (inactive) and the GI50 (DMS-114) was 25.1 µM (inactive). The GI50 (PC-3) was > 100 µM (inactive), the GI50 (SK-MEL-5) was 1.82 µM (inactive) and the GI50 (RXF 393) was 30.3 µM (inactive). For the same compound, the GI50 (SNB-78) was 24.7 µM (inactive), the GI50 (HCT-116) was 53.7 µM (inactive) and the GI50 (LOX IMVI) was 8.71 µM (inactive). For the same compound, the GI50 (SF-268) was 36.9 µM (inactive), the GI50 (UACC-62) was 12 µM (inactive) and the GI50 (DU-145) was 52.5 µM (inactive).
